In patent US11566007B2, “Ras inhibitors” (Revolution Medicines, Inc., priority 2019, dated 2023):
Read-outs that look alike come from different tables or passages of the source.

Key:
NRAS WT = NRAS WT (Homo sapiens (Human), UniProt P01111+P62937); test: Ras-Raf (BRAF RBD) disruption / FRET / MOA assay, NRAS WT; format: biochemical; conditions: read-out: IC50* NRAS WT FRET data
Method in brief: (§1)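 TR-FRET disruption of nucleotide-loaded Ras binding to BRAF RBD via compound-driven ternary complex with cyclophilin A. Compound as 10-point 3-fold series from 30 μM final, 3 h at 25° C, then anti-His Eu-W1024 (10 nM) and anti-GST allophycocyanin (50 nM) for 1.5 h. IC50 from decreased FRET ratio versus DMSO.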

NRAS Q61R = NRAS Q61R (Homo sapiens (Human), UniProt P01111+P62937, Q61R); test: Ras-Raf (BRAF RBD) disruption / FRET / MOA assay, NRAS Q61R; format: biochemical; conditions: NRAS Q61R; Ras-Raf disruption/FRET/MOA assay; read-out: IC50* NRAS Q61R FRET data
Method in brief: as §1

NRAS G12C = NRAS G12C (Homo sapiens (Human), UniProt P01111+P62937, G12C); test: Ras-Raf (BRAF RBD) disruption / FRET / MOA assay, NRAS G12C; format: biochemical; conditions: read-out: IC50* NRAS G12C FRET data
Method in brief: (§2)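 Ras:RAF disruption was scored as a fall in TR-FRET ratio relative to DMSO. Compound ranged in 3-fold steps over 10 points from 30 μM final; incubation ran 3 h at 25° C, detection antibodies a further 1.5 h. Reported as IC50.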

NCI-H358 (K-Ras G12C) = test: CellTiter-Glo cell viability assay, NCI-H358; format: cell-based, human; conditions: Homo sapiens, NCI-H358, 120 h, class symbols
Method in brief: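 Viability measured by CellTiter-Glo luminescence on day 5 following direct addition of compound to plated cells. Values expressed as percent of mean DMSO signal; curves fitted with a four-parameter logistic model.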

K-Ras G13C = K-Ras G13C (Homo sapiens (Human), UniProt P01116+P62937, G13C); test: Ras-Raf (BRAF RBD) disruption / FRET / MOA assay, KRAS G13C; format: biochemical; conditions: KRAS G13C; Ras-Raf disruption/FRET/MOA assay; read-out: IC50* KRAS G13C FRET data
Method in brief: as §2

KRAS G12D = KRAS G12D (Homo sapiens (Human), UniProt P01116+P62937, G12D); test: Ras-Raf (BRAF RBD) disruption / FRET / MOA assay, KRAS G12D; format: biochemical; conditions: Ras-Raf disruption/FRET/MOA assay; class symbols; read-out: KRAS G12D FRET data IC50
Method in brief: as §2

KRAS G12V = KRAS G12V (Homo sapiens (Human), UniProt P01116+P62937, G12V); test: Ras-Raf (BRAF RBD) disruption / FRET / MOA assay, KRAS G12V; format: biochemical; conditions: read-out: IC50* KRAS G12V FRET data
Method in brief: as §2

[1] = NCI-H358, 5-day treatment, read-out: Additional H358 Cell Viability assay data (K-Ras G12C, IC50)

Sequence of NRAS WT (P01111 whole entry): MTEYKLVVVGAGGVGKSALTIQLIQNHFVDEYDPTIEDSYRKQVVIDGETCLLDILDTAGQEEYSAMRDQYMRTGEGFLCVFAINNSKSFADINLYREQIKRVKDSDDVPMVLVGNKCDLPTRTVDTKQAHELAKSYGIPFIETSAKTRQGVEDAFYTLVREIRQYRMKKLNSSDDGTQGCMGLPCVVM
Sequence of NRAS WT (P62937 whole entry): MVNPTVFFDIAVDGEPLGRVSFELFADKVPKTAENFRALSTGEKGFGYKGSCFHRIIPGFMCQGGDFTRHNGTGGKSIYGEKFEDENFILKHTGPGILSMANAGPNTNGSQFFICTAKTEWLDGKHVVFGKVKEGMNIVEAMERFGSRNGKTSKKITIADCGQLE
Sequence of NRAS Q61R (P01111 whole entry Q61R): as the sequence (P01111 whole entry) above, with Q61R counted along it
Sequence of NRAS Q61R (P62937 whole entry): as the sequence (P62937 whole entry) above
Sequence of KRAS G12V (P01116-2 other isoform, or with tags, fused parts or gaps G12V): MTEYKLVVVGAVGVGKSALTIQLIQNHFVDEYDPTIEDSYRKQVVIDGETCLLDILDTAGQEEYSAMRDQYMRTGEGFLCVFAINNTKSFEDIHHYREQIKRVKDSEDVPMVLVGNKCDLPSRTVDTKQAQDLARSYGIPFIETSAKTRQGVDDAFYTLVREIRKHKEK
Sequence of KRAS G12V (P62937 whole entry): as the sequence (P62937 whole entry) above
Sequence of K-Ras G13C (P01116-2 other isoform, or with tags, fused parts or gaps G13C): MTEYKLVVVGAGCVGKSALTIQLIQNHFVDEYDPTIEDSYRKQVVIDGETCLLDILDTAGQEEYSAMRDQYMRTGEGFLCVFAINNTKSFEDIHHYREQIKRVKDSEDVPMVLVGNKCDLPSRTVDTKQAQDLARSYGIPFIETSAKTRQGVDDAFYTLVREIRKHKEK
Sequence of K-Ras G13C (P62937 whole entry): as the sequence (P62937 whole entry) above
Sequence of NRAS G12C (P01111 whole entry G12C): as the sequence (P01111 whole entry) above, with G12C counted along it
Sequence of NRAS G12C (P62937 whole entry): as the sequence (P62937 whole entry) above
Sequence of KRAS G12D (P01116-2 other isoform, or with tags, fused parts or gaps G12D): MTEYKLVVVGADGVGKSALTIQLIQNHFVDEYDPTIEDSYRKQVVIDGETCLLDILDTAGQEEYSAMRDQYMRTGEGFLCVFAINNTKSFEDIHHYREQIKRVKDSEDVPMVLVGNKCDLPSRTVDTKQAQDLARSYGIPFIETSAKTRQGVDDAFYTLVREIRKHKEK
Sequence of KRAS G12D (P62937 whole entry): as the sequence (P62937 whole entry) above

| Compound | IC50 (NRAS WT) | IC50 (NRAS Q61R) | IC50 (NRAS G12C) | IC50 (NCI-H358 (K-Ras G12C); [1]) | IC50 (K-Ras G13C) | IC50 (KRAS G12D) | IC50 (KRAS G12V) | IC50 (NCI-H358 (K-Ras G12C); read-out: Additional H358 Cell Viability assay data (K-Ras G12C, IC50, uM), NCI-H358, 5-day treatment) |
| --- | --- | --- | --- | --- | --- | --- | --- | --- |
| C=CC(=O)N1CC[C@H](C(=O)N(C)[C@H](C(=O)N[C@H]2Cc3cccc(n3)-c3ccc4c(c3)c(c(-c3cccnc3[C@H](C)OC)n4CC)CC(C)(C)COC(=O)[C@@H]3CCCN(N3)C2=O)C(C)C)C1 (atropisomer, axis not shown) [Example A442] | > 10000 nM | 1000 to 10000 nM | 100 to 1000 nM | 0.01 to 0.1 µM | 1000 to 10000 nM | > 10000 nM | > 10000 nM | – |
| C=CC(=O)N1CC[C@H](C(=O)N(C)[C@H](C(=O)N[C@H]2Cc3cccc(c3)-c3ccc4c(c3)c(c(-c3cccnc3[C@H](C)OC)n4CC3COC3)CC(C)(C)COC(=O)[C@@H]3CCCN(N3)C2=O)C(C)C)C1 (atropisomer, axis not shown) [Example A481] | 1000 to 10000 nM | 1000 to 10000 nM | 100 to 1000 nM | 0.01 to 0.1 µM | 1000 to 10000 nM | > 10000 nM | 1000 to 10000 nM | – |
| C=CC(=O)N1CC[C@H](C(=O)N2CCCCC[C@H]2C(=O)N[C@H]2Cc3nc(cs3)-c3ccc4c(c3)c(c(-c3cccnc3[C@H](C)OC)n4CC)CC(C)(C)COC(=O)[C@@H]3CCCN(N3)C2=O)C1 (atropisomer, axis not shown) [Example A495] | 1000 to 10000 nM | 1000 to 10000 nM | 100 to 1000 nM | 0.01 to 0.1 µM | 1000 to 10000 nM | > 10000 nM | 1000 to 10000 nM | – |
| C=CC(=O)N(C)CCN1CCN(C(=O)N(C)[C@H](C(=O)N[C@H]2Cc3cccc(c3)-c3ccc4c(c3)c(c(-c3cccnc3[C@H](C)OC)n4CC)CC(C)(C)COC(=O)[C@@H]3CCCN(N3)C2=O)C(C)C)CC1 (atropisomer, axis not shown) [Example A539] | 100 to 1000 nM | 100 to 1000 nM | 100 to 1000 nM | 0.1 to 1 µM | 10 to 100 nM | 1000 to 10000 nM | 100 to 1000 nM | – |
| C=CC(=O)N1CCOC2(CCN(C(=O)N(C)[C@H](C(=O)N[C@H]3Cc4cc(C(F)F)cc(n4)-c4ccc5c(c4)c(c(-c4cccnc4[C@H](C)OC)n5CC(F)(F)F)CC(C)(C)COC(=O)[C@@H]4CCCN(N4)C3=O)C(C)C)CC2)C1 (atropisomer, axis not shown) [Example A541] | 100 to 1000 nM | 100 to 1000 nM | 100 to 1000 nM | 0.01 to 0.1 µM | 10 to 100 nM | 1000 to 10000 nM | 1000 to 10000 nM | – |
| C=CC(=O)N1CCC[C@]12CCN(C(=O)N(C)[C@H](C(=O)N[C@H]1Cc3nc(cs3)-c3ccc4c(c3)c(c(-c3cccnc3[C@H](C)OC)n4CC)CC(C)(C)COC(=O)[C@@H]3CCCN(N3)C1=O)C(C)C)C2 (atropisomer, axis not shown) [Example A548] | 100 to 1000 nM | 100 to 1000 nM | 100 to 1000 nM | 0.1 to 1 µM | 1000 to 10000 nM | 1000 to 10000 nM | 100 to 1000 nM | – |
| C=CC(=O)N(C)CCN1CCN(C(=O)N(C)[C@H](C(=O)N[C@H]2Cc3cccc(c3)-c3ccc4c(c3)c(c(-c3cccnc3[C@H](C)OC)n4CC)CC(C)(C)COC(=O)[C@@H]3CCCN(N3)C2=O)C(C)C)C[C@H]1C (atropisomer, axis not shown) [Example A553] | 1000 to 10000 nM | 1000 to 10000 nM | 100 to 1000 nM | 0.1 to 1 µM | 10 to 100 nM | 1000 to 10000 nM | 1000 to 10000 nM | – |
| C=CC(=O)N1CCC2(CCN(C(=O)N(C)[C@H](C(=O)N[C@H]3Cc4cccc(c4)-c4ccc5c(c4)c(c(-c4cccnc4[C@H](C)OC)n5CC)CC(C)(C)COC(=O)[C@@H]4CCCN(N4)C3=O)C(C)C)CC2)C1 (atropisomer, axis not shown) [Example A554] | 100 to 1000 nM | 100 to 1000 nM | 100 to 1000 nM | 0.1 to 1 µM | 10 to 100 nM | 1000 to 10000 nM | 100 to 1000 nM | – |
| C=CC(=O)N1CC[C@]2(C1)OCN([C@H](C(=O)N[C@H]1Cc3cc(cc(C(F)F)c3)-c3ccc4c(c3)c(c(-c3cccnc3[C@H](C)OC)n4CC)CC(C)(C)COC(=O)[C@@H]3CCCN(N3)C1=O)C(C)C)C2=O (atropisomer, axis not shown) [Example A557] | 100 to 1000 nM | 1000 to 10000 nM | 100 to 1000 nM | 0.1 to 1 µM | 100 to 1000 nM | 1000 to 10000 nM | 1000 to 10000 nM | – |
| CCn1c(-c2cccnc2[C@H](C)OC)c2c3cc(ccc31)-c1cccc(c1)C[C@H](NC(=O)[C@H](C(C)C)N1CC[C@]3(CCN(C(=O)C#C[C@H]4COCCN4C4COC4)C3)C1=O)C(=O)N1CCC[C@H](N1)C(=O)OCC(C)(C)C2 (atropisomer, axis not shown) [Example A568] | > 10000 nM | > 10000 nM | 100 to 1000 nM | 0.01 to 0.1 µM | 1000 to 10000 nM | > 10000 nM | > 10000 nM | – |
| CCn1c(-c2cccnc2[C@H](C)OC)c2c3cc(ccc31)-c1cccc(c1)C[C@H](NC(=O)[C@H](C(C)C)N1CC[C@]3(CCN(C(=O)C#C[C@@H]4COCCN4C)C3)C1=O)C(=O)N1CCC[C@H](N1)C(=O)OCC(C)(C)C2 (atropisomer, axis not shown) [Example A569] | > 10000 nM | > 10000 nM | 10 to 100 nM | – | 1000 to 10000 nM | > 10000 nM | > 10000 nM | 0.01 to 0.1 µM |
| C=CC(=O)N(C)CCN1CCN(C(=O)N(C)[C@H](C(=O)N[C@H]2Cc3cccc(c3)-c3ccc4c(c3)c(c(-c3cccnc3[C@H](C)OC)n4CC)CC(C)(C)COC(=O)[C@@H]3CCCN(N3)C2=O)C(C)C)C[C@@H]1C (atropisomer, axis not shown) [Example A570] | 100 to 1000 nM | 100 to 1000 nM | 100 to 1000 nM | 0.1 to 1 µM | 10 to 100 nM | 1000 to 10000 nM | 100 to 1000 nM | – |
| C=CC(=O)N1CCO[C@H]2CN(C(=O)N(C)[C@H](C(=O)N[C@H]3Cc4nc(n(C)n4)-c4ccc5c(c4)c(c(-c4cccnc4[C@H](C)OC)n5CC(F)(F)F)CC(C)(C)COC(=O)[C@@H]4CCCN(N4)C3=O)C(C)C)C[C@H]21 (atropisomer, axis not shown) [Example A575] | 100 to 1000 nM | 100 to 1000 nM | 10 to 100 nM | 0.01 to 0.1 µM | 10 to 100 nM | 1000 to 10000 nM | 1000 to 10000 nM | – |
| C=CC(=O)N1CCO[C@]2(CCN(C(=O)N(C)[C@H](C(=O)N[C@H]3Cc4nc(cs4)-c4ccc5c(c4)c(c(-c4cccnc4[C@H](C)OC)n5CC(F)(F)F)CC(C)(C)COC(=O)[C@@H]4CCCN(N4)C3=O)C(C)C)C2)C1 (atropisomer, axis not shown) [Example A593] | 100 to 1000 nM | 100 to 1000 nM | 100 to 1000 nM | 0.1 to 1 µM | 100 to 1000 nM | 1000 to 10000 nM | 1000 to 10000 nM | – |
| CCn1c(-c2cccnc2[C@H](C)OC)c2c3cc(ccc31)-c1csc(n1)C[C@H](NC(=O)[C@H](C(C)C)N(C)C(=O)N1CCC13CN(C(=O)/C=C/CN(C)C)C3)C(=O)N1CCC[C@H](N1)C(=O)OCC(C)(C)C2 (atropisomer, axis not shown) [Example A598] | 10 to 100 nM | 10 to 100 nM | 10 to 100 nM | 0.01 to 0.1 µM | 100 to 1000 nM | 100 to 1000 nM | 100 to 1000 nM | – |
| C=CC(=O)N1CCOC2(CCN(C(=O)N(C)[C@H](C(=O)N[C@H]3Cc4cccc(n4)-c4ccc5c(c4)c(c(-c4cccnc4[C@H](C)OC)n5CC(F)(F)F)CC(C)(C)COC(=O)[C@@H]4CCCN(N4)C3=O)C(C)C)CC2)C1 (atropisomer, axis not shown) [Example A607, 4-acryloyl-N-((2S)-1-(((6^3S,4S)-1^2-(2-((S)-1-methoxyethyl)pyridin-3-yl)-10,10-dimethyl-5,7-dioxo-1^1-(2,2,2-trifluoroethyl)-6^1,6^2,6^3,6^4,6^5,6^6-hexahydro-1^1H-8-oxa-1(5,3)-indola-6(1,3)-pyridazina-2(2,6)-pyridinacycloundecaphane-4-yl)amino)-3-methyl-1-oxobutan-2-yl)-N-methyl-1-oxa-4,9-diazaspiro[5.5]undecane-9-carboxamide] | 100 to 1000 nM | 100 to 1000 nM | 100 to 1000 nM | 0.01 to 0.1 µM | 10 to 100 nM | 1000 to 10000 nM | 1000 to 10000 nM | – |
| CCn1c(-c2cccnc2[C@H](C)OC)c2c3cc(ccc31)-c1csc(n1)C[C@H](NC(=O)[C@H](C(C)C)N(C)C(=O)N1CCC13CN(C(=O)/C=C/CN1CCOCC1)C3)C(=O)N1CCC[C@H](N1)C(=O)OCC(C)(C)C2 (atropisomer, axis not shown) [Example A611] | 100 to 1000 nM | 10 to 100 nM | 100 to 1000 nM | 0.01 to 0.1 µM | 100 to 1000 nM | 1000 to 10000 nM | 100 to 1000 nM | – |
